Measurements: ChEMBL document CHEMBL1201862, “PubChem BioAssay data set” (2004)
Counter-ions that a name gives are not always drawn.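 Cells were grown in 96-well plates and exposed to each compound for 48 hours at five concentrations; endpoints were interpolated linearly between bracketing concentrations, or set to the highest concentration if not reached. GI50 marks 50% less growth.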 The source made the active and inactive calls. Cut-off read from the data, not from the text of the source: active = GI50 up to about 1.1 µM and inactive = higher.

Columns and labels:
Experiment in all cases: NCI-60 cell line screen, 48 h
TK-10 = system: TK-10
RPMI-8226 = system: RPMI-8226
CCRF-CEM = system: CCRF-CEM
HT-29 = system: HT-29
U-251 = system: U-251
MDA-MB-435 = system: MDA-MB-435
SNB-19 = system: SNB-19
KM12 = system: KM12
OVCAR-5 = system: OVCAR-5
NCI-H460 = system: NCI-H460
SK-MEL-28 = system: SK-MEL-28
T47D = system: T47D
SN12C = system: SN12C
SK-MEL-2 = system: SK-MEL-2
M14 = system: M14
OVCAR-3 = system: OVCAR-3
EKVX = system: EKVX
MDA-N = system: MDA-N
SW-620 = system: SW-620
HL-60 = system: HL-60
K562 = system: K562
SF-295 = system: SF-295
NCI/ADR-RES = system: NCI/ADR-RES
BT-549 = system: BT-549
A498 = system: A498
IGROV-1 = system: IGROV-1
SR = system: SR
MOLT-4 = system: MOLT-4
UACC-62 = system: UACC-62
OVCAR-4 = system: OVCAR-4
COLO 205 = system: COLO 205
NCI-H23 = system: NCI-H23
CAKI-1 = system: CAKI-1
PC-3 = system: PC-3
MDA-MB-231 = system: MDA-MB-231
LOX IMVI = system: LOX IMVI
UO-31 = system: UO-31
MCF7 = system: MCF7
ACHN = system: ACHN
OVCAR-8 = system: OVCAR-8
SF-268 = system: SF-268
HOP-62 = system: HOP-62
Hs-578T = system: Hs-578T
HCT-15 = system: HCT-15
SK-OV-3 = system: SK-OV-3
SF-539 = system: SF-539
SK-MEL-5 = system: SK-MEL-5
786-0 = system: 786-0
DU-145 = system: DU-145
NCI-H226 = system: NCI-H226
UACC-257 = system: UACC-257
Malme-3M = system: Malme-3M
A549 = system: A549
RXF 393 = system: RXF 393
HCT-116 = system: HCT-116
SNB-75 = system: SNB-75
NCI-H522 = system: NCI-H522
HOP-92 = system: HOP-92

**Q.** For `CC(=O)OC1CCC2(C)C(CCC3C4CC=C(C5(C)OCCO5)C4(C)CCC32)C1` (configuration not stated), which GI50 (TK-10) is on record?
**A.** 22.5 µM (inactive)

**Q.** What about the GI50 (RPMI-8226) of the same compound?
**A.** 14.4 µM (inactive)

**Q.** And the GI50 (CCRF-CEM)?
**A.** 19.5 µM (inactive)

**Q.** What about the GI50 (HT-29) of the same compound?
**A.** 19.5 µM (inactive)

**Q.** And the GI50 (U-251)?
**A.** 18 µM (inactive)

**Q.** What about the GI50 (MDA-MB-435) of the same compound?
**A.** 20.3 µM (inactive)

**Q.** What about the GI50 (SNB-19) of the same compound?
**A.** 30.2 µM (inactive)

**Q.** And the GI50 (KM12)?
**A.** 23.6 µM (inactive)

**Q.** And the GI50 (OVCAR-5)?
**A.** 22.1 µM (inactive)

**Q.** What about the GI50 (NCI-H460) of the same compound?
**A.** 20 µM (inactive)

**Q.** What about the GI50 (SK-MEL-28) of the same compound?
**A.** 21.2 µM (inactive)

**Q.** What about the GI50 (T47D) of the same compound?
**A.** 22.9 µM (inactive)

**Q.** And the GI50 (SN12C)?
**A.** 19.6 µM (inactive)

**Q.** And the GI50 (SK-MEL-2)?
**A.** 18.5 µM (inactive)

**Q.** And the GI50 (M14)?
**A.** 23 µM (inactive)

**Q.** And the GI50 (OVCAR-3)?
**A.** 19.7 µM (inactive)

**Q.** What about the GI50 (EKVX) of the same compound?
**A.** 21.7 µM (inactive)

**Q.** What about the GI50 (MDA-N) of the same compound?
**A.** 20.3 µM (inactive)

**Q.** And the GI50 (SW-620)?
**A.** 21 µM (inactive)

**Q.** And the GI50 (HL-60)?
**A.** 19.9 µM (inactive)

**Q.** And the GI50 (K562)?
**A.** 25.1 µM (inactive)

**Q.** And the GI50 (SF-295)?
**A.** 26.1 µM (inactive)

**Q.** What about the GI50 (NCI/ADR-RES) of the same compound?
**A.** 20.6 µM (inactive)

**Q.** And the GI50 (BT-549)?
**A.** 20.6 µM (inactive)

**Q.** What about the GI50 (A498) of the same compound?
**A.** 24.9 µM (inactive)

**Q.** And the GI50 (IGROV-1)?
**A.** 24.2 µM (inactive)

**Q.** What about the GI50 (SR) of the same compound?
**A.** 17.1 µM (inactive)

**Q.** And the GI50 (MOLT-4)?
**A.** 17.3 µM (inactive)

**Q.** And the GI50 (UACC-62)?
**A.** 19.9 µM (inactive)

**Q.** And the GI50 (OVCAR-4)?
**A.** 19.7 µM (inactive)

**Q.** What about the GI50 (COLO 205) of the same compound?
**A.** 17.6 µM (inactive)

**Q.** And the GI50 (NCI-H23)?
**A.** 25.6 µM (inactive)

**Q.** And the GI50 (CAKI-1)?
**A.** 28.3 µM (inactive)

**Q.** What about the GI50 (PC-3) of the same compound?
**A.** 17.3 µM (inactive)

**Q.** What about the GI50 (MDA-MB-231) of the same compound?
**A.** 33.2 µM (inactive)

**Q.** What about the GI50 (LOX IMVI) of the same compound?
**A.** 16.9 µM (inactive)

**Q.** What about the GI50 (UO-31) of the same compound?
**A.** 25.4 µM (inactive)

**Q.** And the GI50 (MCF7)?
**A.** 22.6 µM (inactive)

**Q.** What about the GI50 (ACHN) of the same compound?
**A.** 25.1 µM (inactive)

**Q.** What about the GI50 (OVCAR-8) of the same compound?
**A.** 20.1 µM (inactive)

**Q.** What about the GI50 (SF-268) of the same compound?
**A.** 27.8 µM (inactive)

**Q.** And the GI50 (HOP-62)?
**A.** 19.1 µM (inactive)

**Q.** And the GI50 (Hs-578T)?
**A.** 23.3 µM (inactive)

**Q.** What about the GI50 (HCT-15) of the same compound?
**A.** 27.2 µM

**Q.** And the GI50 (SK-OV-3)?
**A.** 47.9 µM (inactive)

**Q.** And the GI50 (SF-539)?
**A.** 20.5 µM (inactive)

**Q.** What about the GI50 (SK-MEL-5) of the same compound?
**A.** 15.6 µM (inactive)

**Q.** And the GI50 (786-0)?
**A.** 30.4 µM (inactive)

**Q.** What about the GI50 (DU-145) of the same compound?
**A.** 41.3 µM (inactive)

**Q.** What about the GI50 (NCI-H226) of the same compound?
**A.** 25.9 µM (inactive)

**Q.** What about the GI50 (UACC-257) of the same compound?
**A.** 18.7 µM (inactive)

**Q.** What about the GI50 (Malme-3M) of the same compound?
**A.** 22.1 µM (inactive)

**Q.** And the GI50 (A549)?
**A.** 26.7 µM (inactive)

**Q.** And the GI50 (RXF 393)?
**A.** 17.7 µM (inactive)

**Q.** And the GI50 (HCT-116)?
**A.** 20.1 µM (inactive)

**Q.** What about the GI50 (SNB-75) of the same compound?
**A.** 28.8 µM (inactive)

**Q.** How did the GI50 (TK-10) turn out when `CN1[C@@H]2CC[C@H]1C[C@@H](OC(c1ccccc1)c1ccccc1)C2` [BENZTROPINE MESYLATE] was run?
**A.** 17.3 µM (inactive)

**Q.** What about the GI50 (RPMI-8226) of the same compound?
**A.** 14.7 µM (inactive)

**Q.** What about the GI50 (CCRF-CEM) of the same compound?
**A.** 14 µM (inactive)

**Q.** And the GI50 (HT-29)?
**A.** 11 µM (inactive)

**Q.** And the GI50 (U-251)?
**A.** 15.5 µM (inactive)

**Q.** And the GI50 (NCI-H522)?
**A.** 14.9 µM (inactive)

**Q.** And the GI50 (MDA-MB-435)?
**A.** 13.9 µM (inactive)

**Q.** What about the GI50 (SNB-19) of the same compound?
**A.** 22 µM (inactive)

**Q.** And the GI50 (KM12)?
**A.** 17.2 µM (inactive)

**Q.** And the GI50 (OVCAR-5)?
**A.** 18.4 µM (inactive)

**Q.** What about the GI50 (SK-MEL-28) of the same compound?
**A.** 14.7 µM (inactive)

**Q.** What about the GI50 (T47D) of the same compound?
**A.** 17.3 µM (inactive)

**Q.** What about the GI50 (SN12C) of the same compound?
**A.** 27.9 µM (inactive)

**Q.** And the GI50 (SK-MEL-2)?
**A.** 17.1 µM (inactive)

**Q.** What about the GI50 (M14) of the same compound?
**A.** 14.7 µM (inactive)

**Q.** And the GI50 (OVCAR-3)?
**A.** 15.9 µM (inactive)

**Q.** What about the GI50 (EKVX) of the same compound?
**A.** 31.6 µM (inactive)

**Q.** What about the GI50 (MDA-N) of the same compound?
**A.** 15.1 µM (inactive)

**Q.** What about the GI50 (SW-620) of the same compound?
**A.** 14.5 µM (inactive)

**Q.** What about the GI50 (HL-60) of the same compound?
**A.** 18.2 µM (inactive)

**Q.** What about the GI50 (K562) of the same compound?
**A.** 13.1 µM (inactive)

**Q.** And the GI50 (SF-295)?
**A.** 11.4 µM (inactive)

**Q.** What about the GI50 (HOP-92) of the same compound?
**A.** 12.4 µM (inactive)

**Q.** And the GI50 (NCI/ADR-RES)?
**A.** 16.2 µM (inactive)

**Q.** What about the GI50 (BT-549) of the same compound?
**A.** 19.1 µM (inactive)

**Q.** What about the GI50 (A498) of the same compound?
**A.** 14 µM (inactive)

**Q.** And the GI50 (IGROV-1)?
**A.** 17 µM (inactive)

**Q.** And the GI50 (SR)?
**A.** 19.5 µM (inactive)

**Q.** What about the GI50 (MOLT-4) of the same compound?
**A.** 21 µM (inactive)

**Q.** What about the GI50 (UACC-62) of the same compound?
**A.** 16.8 µM (inactive)

**Q.** What about the GI50 (OVCAR-4) of the same compound?
**A.** 25.5 µM (inactive)

**Q.** And the GI50 (COLO 205)?
**A.** 11.3 µM (inactive)

**Q.** What about the GI50 (NCI-H23) of the same compound?
**A.** 27.3 µM (inactive)

**Q.** And the GI50 (CAKI-1)?
**A.** 23.6 µM (inactive)

**Q.** What about the GI50 (PC-3) of the same compound?
**A.** 16.6 µM (inactive)

**Q.** What about the GI50 (MDA-MB-231) of the same compound?
**A.** 17.5 µM (inactive)

**Q.** And the GI50 (LOX IMVI)?
**A.** 16 µM (inactive)

**Q.** And the GI50 (UO-31)?
**A.** 15.3 µM (inactive)

**Q.** What about the GI50 (MCF7) of the same compound?
**A.** 13.9 µM (inactive)

**Q.** And the GI50 (ACHN)?
**A.** 19.7 µM (inactive)

**Q.** And the GI50 (OVCAR-8)?
**A.** 16.4 µM (inactive)

**Q.** What about the GI50 (SF-268) of the same compound?
**A.** 18.5 µM (inactive)

**Q.** And the GI50 (HOP-62)?
**A.** 15.6 µM (inactive)

**Q.** And the GI50 (Hs-578T)?
**A.** 13.1 µM (inactive)

**Q.** What about the GI50 (HCT-15) of the same compound?
**A.** 22.5 µM

**Q.** What about the GI50 (SK-OV-3) of the same compound?
**A.** 17.9 µM (inactive)

**Q.** And the GI50 (SK-MEL-5)?
**A.** 15.6 µM (inactive)

**Q.** And the GI50 (786-0)?
**A.** 14 µM (inactive)

**Q.** What about the GI50 (DU-145) of the same compound?
**A.** 26.9 µM (inactive)

**Q.** And the GI50 (NCI-H226)?
**A.** 27.5 µM (inactive)

**Q.** What about the GI50 (UACC-257) of the same compound?
**A.** 13.7 µM (inactive)

**Q.** And the GI50 (Malme-3M)?
**A.** 14.9 µM (inactive)

**Q.** What about the GI50 (A549) of the same compound?
**A.** 16.9 µM (inactive)

**Q.** What about the GI50 (RXF 393) of the same compound?
**A.** 15.5 µM (inactive)

**Q.** And the GI50 (HCT-116)?
**A.** 12.6 µM (inactive)

**Q.** What about the GI50 (SNB-75) of the same compound?
**A.** 17.3 µM (inactive)
